Measured values as given in PubChem BioAssay AID1963977 (Molecular Pharmacology Branch, DTP, NCI, 2024).
Where “and” joins values, the source holds several entries; their conditions need not be identical. Equal entries are not always repeated.

Tested on: 624824-186-R-J3-PDC multicell spheroids, viability
Experiment: Anticancer human tumor 624824-186-R-J3-PDC patient-derived colon adenocarcinoma cell line growth inhibition [PI3K]
Conditions: for viability, T/C: stronger effect = lower value
Summary of the method: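 Complex 3D spheroids (cancer cells + endothelial HUVEC + mesenchymal stem cells); drug pairs of targeted agent x inavolisib/alpelisib/duvelisib/copanlisib; half-log series from ~Cmax, max 10 microM if Cmax unknown; endpoint viability.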

[1] = curve of first compound, second compound 0.0316 µM
[2] = curve of first compound, second compound 0.1 µM
[3] = curve of first compound, second compound 0.316 µM
[4] = curve of first compound, second compound 1 µM
[5] = curve of first compound, second compound 3.16 µM
[6] = curve of first compound, second compound 10 µM
[7] = second compound 0.0316 µM, first compound 0.00316 µM
[8] = second compound 0.0316 µM, first compound 0.01 µM
[9] = second compound 0.0316 µM, first compound 0.0316 µM
[10] = second compound 0.0316 µM, first compound 0.1 µM
[11] = second compound 0.1 µM, first compound 0.00316 µM
[12] = second compound 0.1 µM, first compound 0.01 µM
[13] = second compound 0.1 µM, first compound 0.0316 µM
[14] = second compound 0.1 µM, first compound 0.1 µM
[15] = second compound 0.316 µM, first compound 0.00316 µM
[16] = second compound 0.316 µM, first compound 0.01 µM
[17] = second compound 0.316 µM, first compound 0.0316 µM
[18] = second compound 0.316 µM, first compound 0.1 µM
[19] = second compound 1 µM, first compound 0.00316 µM
[20] = second compound 1 µM, first compound 0.01 µM
[21] = second compound 1 µM, first compound 0.0316 µM
[22] = second compound 1 µM, first compound 0.1 µM
[23] = second compound 3.16 µM, first compound 0.0316 µM
[24] = second compound 3.16 µM, first compound 0.1 µM
[25] = second compound 10 µM, first compound 0.0316 µM
[26] = second compound 10 µM, first compound 0.1 µM
[27] = second compound 0.0316 µM, first compound 0.316 µM
[28] = second compound 0.0316 µM, first compound 1 µM
[29] = second compound 0.1 µM, first compound 0.316 µM
[30] = second compound 0.1 µM, first compound 1 µM
[31] = second compound 0.316 µM, first compound 0.316 µM
[32] = second compound 0.316 µM, first compound 1 µM
[33] = second compound 1 µM, first compound 0.316 µM
[34] = second compound 1 µM, first compound 1 µM
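Further: spheroids exposed to agents for seven days before luminescence read.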
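Wherever viability, T/C is given: luminescent signal used as a stand-in for spheroid viability; percent viability relative to DMSO vehicle control wells taken as 100%.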

CC(=O)c1c(C)c2cnc(Nc3ccc(N4CCNCC4)cn3)nc2n(C2CCCC2)c1=O + Cc1nc(NC(=O)N2CCCC2C(N)=O)sc1-c1ccnc(C(C)(C)C(F)(F)F)c1
IC50 [1]: > 0.1 µM | IC50 [2]: > 0.1 µM | IC50 [3]: > 0.1 µM | IC50 [4]: > 0.1 µM | IC50 [5]: > 0.1 µM | IC50 [6]: 0.0639 µM | viability, T/C (second compound 0.0316 µM, first compound 0.000316 µM): 109% | viability, T/C (second compound 0.0316 µM, first compound 0.001 µM): 102% | viability, T/C [7]: 119% | viability, T/C [8]: 99.5% | viability, T/C [9]: 112% | viability, T/C [10]: 101% | viability, T/C (second compound 0.1 µM, first compound 0.000316 µM): 97.3% | viability, T/C (second compound 0.1 µM, first compound 0.001 µM): 104% | viability, T/C [11]: 113% | viability, T/C [12]: 103% | viability, T/C [13]: 107% | viability, T/C [14]: 106% | viability, T/C (second compound 0.316 µM, first compound 0.000316 µM): 112% | viability, T/C (second compound 0.316 µM, first compound 0.001 µM): 107% | viability, T/C [15]: 114% | viability, T/C [16]: 110% | viability, T/C [17]: 104% | viability, T/C [18]: 109% | viability, T/C (second compound 1 µM, first compound 0.000316 µM): 106% | viability, T/C (second compound 1 µM, first compound 0.001 µM): 99.1% | viability, T/C [19]: 109% | viability, T/C [20]: 94.8% | viability, T/C [21]: 101% | viability, T/C [22]: 93.4% | viability, T/C (second compound 3.16 µM, first compound 0.000316 µM): 85.7% | viability, T/C (second compound 3.16 µM, first compound 0.001 µM): 95.7% | viability, T/C (second compound 3.16 µM, first compound 0.00316 µM): 97.8% | viability, T/C (second compound 3.16 µM, first compound 0.01 µM): 85.1% | viability, T/C [23]: 85.3% | viability, T/C [24]: 62.9% | viability, T/C (second compound 10 µM, first compound 0.000316 µM): 71.8% | viability, T/C (second compound 10 µM, first compound 0.001 µM): 73.1% | viability, T/C (second compound 10 µM, first compound 0.00316 µM): 76% | viability, T/C (second compound 10 µM, first compound 0.01 µM): 64.6% | viability, T/C [25]: 59.7% | viability, T/C [26]: 43.9%

COc1c(OCCCN2CCOCC2)ccc2c3n(c(=NC(=O)c4cnc(N)nc4)nc12)CCN3
viability, T/C (compound 0.00316 µM): 102% [middle of 8 runs] | viability, T/C (compound 0.01 µM): 104% [middle of 8 runs] | viability, T/C (compound 0.0316 µM): 102% [middle of 8 runs] | viability, T/C (compound 0.1 µM): 85.9% [middle of 8 runs] | viability, T/C (compound 0.316 µM): 54.4% [middle of 8 runs] | viability, T/C (compound 1 µM): 31.7% [middle of 8 runs] | IC50 (compound alone, run of 04/25/2023): 380 nM [middle of 8 runs]

C#Cc1c(F)ccc2cc(O)cc(-c3ncc4c(N5CC6CCC(C5)N6)nc(OCC56CCCN5CC(F)C6)nc4c3F)c12 (stereo not given)
viability, T/C (compound 0.0316 µM): 120% and 98.2% and 102% (2×) | viability, T/C (compound 0.1 µM): 105% and 102% (2×) and 101% | viability, T/C (compound 0.316 µM): 101% [middle of 4 runs] | viability, T/C (compound 1 µM): 101% [middle of 4 runs] | viability, T/C (compound 3.16 µM): 108% [middle of 4 runs] | viability, T/C (compound 10 µM): 107% [middle of 4 runs] | IC50 (curve of compound): > 10 µM

CC(C)NCC(C(=O)N1CCN(c2ncnc3c2C(C)CC3O)CC1)c1ccc(Cl)cc1 (stereo not given) + CC(Nc1ncnc2nc[nH]c12)c1cc2cccc(Cl)c2c(=O)n1-c1ccccc1
IC50 [1]: > 10 µM | IC50 [2]: > 10 µM | IC50 [3]: > 10 µM | IC50 [4]: > 10 µM | IC50 [5]: 6.42 µM | IC50 [6]: 8.04 µM | viability, T/C [9]: 124% | viability, T/C [10]: 99% | viability, T/C [27]: 94.2% | viability, T/C [28]: 80.5% | viability, T/C (second compound 0.0316 µM, first compound 3.16 µM): 72.5% | viability, T/C (second compound 0.0316 µM, first compound 10 µM): 52.4% | viability, T/C [13]: 108% | viability, T/C [14]: 89.1% | viability, T/C [29]: 95.5% | viability, T/C [30]: 81.2% | viability, T/C (second compound 0.1 µM, first compound 3.16 µM): 59.9% | viability, T/C (second compound 0.1 µM, first compound 10 µM): 56.2% | viability, T/C [17]: 103% | viability, T/C [18]: 103% | viability, T/C [31]: 106% | viability, T/C [32]: 79.2% | viability, T/C (second compound 0.316 µM, first compound 3.16 µM): 59.8% | viability, T/C (second compound 0.316 µM, first compound 10 µM): 54.2% | viability, T/C [21]: 104% | viability, T/C [22]: 110% | viability, T/C [33]: 115% | viability, T/C [34]: 74.7% | viability, T/C (second compound 1 µM, first compound 3.16 µM): 62.8% | viability, T/C (second compound 1 µM, first compound 10 µM): 45.8% | viability, T/C [23]: 93% | viability, T/C [24]: 89.7% | viability, T/C (second compound 3.16 µM, first compound 0.316 µM): 89.5% | viability, T/C (second compound 3.16 µM, first compound 1 µM): 71.6% | viability, T/C (second compound 3.16 µM, first compound 3.16 µM): 57.4% | viability, T/C (second compound 3.16 µM, first compound 10 µM): 45.7% | viability, T/C [25]: 98.2% | viability, T/C [26]: 89.5% | viability, T/C (second compound 10 µM, first compound 0.316 µM): 80% | viability, T/C (second compound 10 µM, first compound 1 µM): 72% | viability, T/C (second compound 10 µM, first compound 3.16 µM): 56% | viability, T/C (second compound 10 µM, first compound 10 µM): 48.7%

CCN1CCN(Cc2ccc(Nc3ncc(F)c(-c4cc(F)c5nc(C)n(C(C)C)c5c4)n3)nc2)CC1 + CC(Nc1ccc2c(c1)OCCn1cc(N3C(=O)OCC3C(F)F)nc1-2)C(N)=O
IC50 (curve of first compound, second compound 0.00316 µM): > 1 µM | IC50 (curve of first compound, second compound 0.01 µM): > 1 µM | IC50 [1]: > 1 µM | IC50 [2]: > 1 µM | IC50 [3]: > 1 µM | IC50 [4]: 0.287 µM | viability, T/C (second compound 0.00316 µM, first compound 0.00316 µM): 99.2% | viability, T/C (second compound 0.00316 µM, first compound 0.01 µM): 96.2% | viability, T/C (second compound 0.00316 µM, first compound 0.0316 µM): 106% | viability, T/C (second compound 0.00316 µM, first compound 0.1 µM): 101% | viability, T/C (second compound 0.00316 µM, first compound 0.316 µM): 93.2% | viability, T/C (second compound 0.00316 µM, first compound 1 µM): 97.1% | viability, T/C (second compound 0.01 µM, first compound 0.00316 µM): 101% | viability, T/C (second compound 0.01 µM, first compound 0.01 µM): 89% | viability, T/C (second compound 0.01 µM, first compound 0.0316 µM): 114% | viability, T/C (second compound 0.01 µM, first compound 0.1 µM): 102% | viability, T/C (second compound 0.01 µM, first compound 0.316 µM): 104% | viability, T/C (second compound 0.01 µM, first compound 1 µM): 90% | viability, T/C [7]: 101% | viability, T/C [8]: 97.8% | viability, T/C [9]: 102% | viability, T/C [10]: 105% | viability, T/C [27]: 89.6% | viability, T/C [28]: 76.3% | viability, T/C [11]: 94.6% | viability, T/C [12]: 96% | viability, T/C [13]: 103% | viability, T/C [14]: 105% | viability, T/C [29]: 75.2% | viability, T/C [30]: 58.3% | viability, T/C [15]: 94.5% | viability, T/C [16]: 92.9% | viability, T/C [17]: 105% | viability, T/C [18]: 77.2% | viability, T/C [31]: 54.6% | viability, T/C [32]: 49% | viability, T/C [19]: 95.6% | viability, T/C [20]: 87.6% | viability, T/C [21]: 81.1% | viability, T/C [22]: 56.5% | viability, T/C [33]: 45.4% | viability, T/C [34]: 52.5%
